Data from PubChem BioAssay (NCI).
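Assay format: 96-well plates, 48-hour exposure. GI50: concentration for 50% inhibition of growth. TGI: concentration producing complete growth inhibition.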

Columns and labels:
Assay in all cases: NCI tumour cell line growth inhibition, 48 h
[1] = test system: MDA-MB-231 breast
[2] = test system: OVCAR-3 ovarian
[3] = test system: SK-MEL-2 melanoma
[4] = test system: LOX IMVI melanoma
[5] = test system: MALME-3M melanoma
[6] = test system: BT-549 breast
[7] = test system: OVCAR-8 ovarian
[8] = test system: 786-0 renal
[9] = test system: OVCAR-4 ovarian
[10] = test system: HCT-116 colon
[11] = test system: UO-31 renal
[12] = test system: OVCAR-5 ovarian
[13] = test system: A549 NSCLC
[14] = test system: COLO 205 colon
[15] = test system: IGROV1 ovarian
[16] = test system: UACC-62 melanoma
[17] = test system: HOP-62 NSCLC
[18] = test system: HT29 colon
[19] = test system: NCI-H23 lung
[20] = test system: NCI/ADR-RES ovarian
[21] = test system: UACC-257 melanoma
[22] = test system: MDA-MB-435
[23] = test system: SF-295 CNS
[24] = test system: MCF7 breast
[25] = test system: CAKI-1 renal
[26] = test system: RXF 393 renal
[27] = test system: NCI-H522 lung
[28] = test system: K-562 leukemia
[29] = test system: SR leukemia

In the case of `CC1CN=C(c2cccc(-c3ccc(-c4ccccc4)o3)c2)N1` (configuration not stated), the TGI [1] is reported as 4.49 µM, the GI50 [2] is reported as 3.47 µM and the TGI [2] is reported as 13.7 µM. For the same compound, the GI50 [3] was 1.74 µM, the TGI [3] was 3.57 µM and the GI50 [4] was 1.73 µM. It also gave a TGI [4] of 3.22 µM, a GI50 [5] of 1.82 µM and a TGI [5] of 3.63 µM. It also gave a GI50 [6] of 10.5 µM, a TGI [6] of 22.5 µM and a GI50 [7] of 5.98 µM. The TGI [7] was 23.2 µM, the GI50 [8] was 1.84 µM and the TGI [8] was 3.8 µM. It also gave a GI50 [9] of 3.01 µM, a TGI [9] of 19.5 µM and a GI50 [10] of 1.81 µM. The TGI [10] was 3.69 µM, the GI50 [11] was 1.62 µM and the TGI [11] was 3.32 µM. The GI50 [12] was 2.11 µM, the TGI [12] was 5.41 µM and the GI50 [13] was 3.68 µM. For the same compound, the TGI [13] was 11.2 µM, the GI50 [14] was 1.61 µM and the TGI [14] was 3.25 µM. The GI50 [15] was 2.08 µM, the TGI [15] was 5.14 µM and the GI50 [16] was 1.94 µM. The TGI [16] was 4.06 µM, the GI50 [17] was 2.6 µM and the TGI [17] was 6.37 µM. The GI50 [18] was 2.39 µM, the TGI [18] was 4.93 µM and the GI50 [19] was 2.97 µM. It also gave a TGI [19] of 12.5 µM, a GI50 [20] of 3.57 µM and a TGI [20] of 25.9 µM. For the same compound, the GI50 [21] was 2.31 µM, the TGI [21] was 4.62 µM and the GI50 [22] was 1.61 µM. For the same compound, the TGI [22] was 2.99 µM, the GI50 [23] was 1.81 µM and the TGI [23] was 3.84 µM. For the same compound, the GI50 [24] was 1.71 µM, the TGI [24] was 3.59 µM and the GI50 [25] was 2.55 µM. For the same compound, the TGI [25] was 9.19 µM, the GI50 [26] was 1.72 µM and the TGI [26] was 3.36 µM. For the same compound, the GI50 [27] was 1.67 µM, the TGI [27] was 3.65 µM and the GI50 [28] was 1.72 µM. It also gave a TGI [28] of 3.91 µM, a GI50 [29] of 1.86 µM and a TGI [29] of 5.32 µM.
